Assay results from patent publication US6921840B1 (The Trustees of the University of Pennsylvania, priority 1999, dated 2005).

Key:
[1] = In vitro stability of radioiodinated ligand; format: physicochemical; details: prolonged standing (>20 hr) at 0-4° C. in saline solution
serotonin transporters = assay: SPECT imaging in baboons; details: baboon, 120 minutes post-i.v. injection
Source text: The acquisition of SPECT images were obtained by a triple-head gamma camera equipped with ultra high resolution fan-beam collimators (Picker Prism 3000). […] The projection images were reconstructed by filtered-back projection. Then, a 3D, low pass Butterworth filter was applied. For uniform attenuation correction, Chang's first order method was used.

Which results are given for `CN(C)Cc1ccccc1Sc1ccc(I)cc1CO` [[^123I]IDAM]?
in vitro stability [1]: no decomposition observed; ratio of MB/CER uptake (serotonin transporters): 2.4
